In patent US8765173B2, “Drug delivery system for administration of a water soluble, cationic and amphiphilic pharmaceutically active substance” (Ardenia Investments, Ltd., priority 2007, dated 2014):
Values after ≈ are worked out from the molar mass of the structure shown. Where a name gives a salt, the structure may show the parent alone.

Key:
[1] = stated in Example 1 without method; cited from earlier work
[2] = Solubility in water by UV method; conditions: thermodynamic from solid
physchem = conditions: water, thermodynamic from solid

Structure (SMILES) | solubility (physchem) | also measured
COc1cccc2c1C(=O)c1c(O)c3c(c(O)c1C2=O)C[C@@](O)(C(=O)CO)C[C@@H]3O[C@H]1C[C@H](N)[C@H](O)[C@H](C)O1 [doxorubicin hydrochloride] | – | soluble in water in an amount of [1]: more than 25 mg/ml
COc1cccc2c1C(=O)c1c(O)c3c(c(O)c1C2=O)C[C@@](O)(C(=O)CO)C[C@@H]3O[C@H]1C[C@H](N)[C@H](O)[C@H](C)O1 [doxorubicin in amine form, doxorubicin] | – | solubility [2]: 15 µg/mL (≈ 27.6 µM)
O=C1c2c(O)ccc(O)c2C(=O)c2c(NCCNCCO)ccc(NCCNCCO)c21 [mitoxantrone in amine form, mitoxantrone] | 30 µg/mL (≈ 67.5 µM) | –
CC[C@@]1(O)C(=O)OCc2c1cc1n(c2=O)Cc2cc3c(CN(C)C)c(O)ccc3nc2-1 [topotecan in amine form, topotecan] | 90 µg/mL (≈ 214 µM) | –
